Results on three molecules are retold here after PMC8628145 (Cancer chemotherapy and pharmacology, 2021).

“And” between values parts separate entries of the source, which are not always exact repeats. Identical values can stand only once. A value given as a limit tells only on which side of the number the result lay.

The test system of one data set is bFGF. The data set is described as follows: Plasma bFGF level. It is filed as in vivo, human.
The next data set relates to PlGF. The data set is described as follows: Plasma placental growth factor level. Type of data set: in vivo, human.
Another data set deals with VEGF-A. The data set is described as follows: Plasma VEGF-A level. It is filed as in vivo, human.
The next data set concerns HGF. The data set is described as follows: Plasma HGF level. Type of data set: in vivo, human.
For another data set, the system named is soluble VEGFR1 (sVEGFR1). The experiment in a line: Plasma soluble VEGFR1 level. Type of data set: in vivo, human.
The conditions of data set [1]: day 5, previously reported; cited from earlier work.
In another data set the test system is tubulin. The data set is described as follows: Tubulin polymerization assay. Type of data set: biochemical. The conditions noted are these: supplemental Fig. 3B.
For data set [2] the following is noted: human, in vivo, 1 day.
In data set [3] the test system is human RKO colon cancer cells. The experiment in a line: Immunoblot of α- and β-tubulin expression in RKO cells. Conditions: supplemental Fig. 3A. It is filed as cell-based.
The next data set relates to beta-tubulin. The experiment in a line: Skin biopsy immunohistochemistry, tubulin expression. Type of data set: in vivo, human. The conditions noted are these: skin biopsies, oral tivantinib for two weeks (with bevacizumab), C1D15.
The target of a further data set is Met (Homo sapiens, UniProt P08581). The experiment in a line: Skin biopsy immunohistochemistry, total MET expression. It is filed as in vivo. The conditions noted are these: skin biopsies after tivantinib treatment.
Sequence of Met (P08581 25-1390): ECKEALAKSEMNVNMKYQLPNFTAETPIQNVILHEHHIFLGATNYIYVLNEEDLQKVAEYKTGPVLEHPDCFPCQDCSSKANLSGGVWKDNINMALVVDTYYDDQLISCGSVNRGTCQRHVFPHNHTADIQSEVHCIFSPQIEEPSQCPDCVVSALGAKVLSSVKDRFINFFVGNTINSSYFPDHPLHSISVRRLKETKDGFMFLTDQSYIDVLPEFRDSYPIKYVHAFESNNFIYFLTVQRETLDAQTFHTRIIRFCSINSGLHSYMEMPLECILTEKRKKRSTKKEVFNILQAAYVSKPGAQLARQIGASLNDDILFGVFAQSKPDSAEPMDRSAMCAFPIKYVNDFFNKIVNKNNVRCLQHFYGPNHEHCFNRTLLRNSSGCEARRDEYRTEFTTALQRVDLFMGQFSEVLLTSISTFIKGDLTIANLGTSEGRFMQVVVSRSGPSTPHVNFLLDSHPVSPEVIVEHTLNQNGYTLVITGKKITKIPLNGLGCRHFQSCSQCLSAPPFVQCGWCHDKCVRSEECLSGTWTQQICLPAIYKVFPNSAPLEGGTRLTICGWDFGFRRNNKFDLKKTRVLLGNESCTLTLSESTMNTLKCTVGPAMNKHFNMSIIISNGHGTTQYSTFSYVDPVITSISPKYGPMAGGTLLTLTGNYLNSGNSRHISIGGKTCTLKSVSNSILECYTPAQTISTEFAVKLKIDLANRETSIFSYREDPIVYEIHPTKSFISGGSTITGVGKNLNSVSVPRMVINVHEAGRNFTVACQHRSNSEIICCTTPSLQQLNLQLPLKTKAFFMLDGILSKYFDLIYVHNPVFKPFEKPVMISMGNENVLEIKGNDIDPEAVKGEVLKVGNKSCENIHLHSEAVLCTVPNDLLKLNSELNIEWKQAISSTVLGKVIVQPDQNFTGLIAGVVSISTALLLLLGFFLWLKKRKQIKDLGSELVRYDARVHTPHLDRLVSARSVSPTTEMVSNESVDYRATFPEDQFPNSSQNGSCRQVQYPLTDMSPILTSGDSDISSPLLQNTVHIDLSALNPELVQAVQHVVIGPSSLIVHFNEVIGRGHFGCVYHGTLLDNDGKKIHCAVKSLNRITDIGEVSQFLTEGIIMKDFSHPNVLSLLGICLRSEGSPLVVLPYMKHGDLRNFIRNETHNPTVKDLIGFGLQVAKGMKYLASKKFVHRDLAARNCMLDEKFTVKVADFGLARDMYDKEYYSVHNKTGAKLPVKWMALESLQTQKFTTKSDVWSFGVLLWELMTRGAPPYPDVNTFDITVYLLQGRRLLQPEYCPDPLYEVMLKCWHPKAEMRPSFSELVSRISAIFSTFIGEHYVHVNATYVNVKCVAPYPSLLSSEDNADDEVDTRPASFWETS
In another data set the test system is β-tubulin. The experiment in a line: Total β-tubulin expression in patient PBMCs by immunoblot. Type of data set: in vivo, human. Conditions: following tivantinib treatment, data not shown.
A further data set concerns the target p-Tyr1234/5-Met (Homo sapiens, UniProt P08581). The data set is described as follows: Skin biopsy immunohistochemistry, p-MET expression. It is filed as in vivo. Conditions: skin biopsies following tivantinib (with bevacizumab), C1D15.
A short description of data set [4]: Plasma pharmacokinetics of tivantinib and metabolites. The conditions noted are these: for Cl/F: first dose, based on AUC0–inf; for half-life: t½.
For another data set, the system named is CYP3A4. The conditions noted are these: at 50 µM (~ 18 µg/mL); ArQule data on file; cited from earlier work.
Setting [5] is: addition of tivantinib to bevacizumab.

Sequence of p-Tyr1234/5-Met (P08581 25-1390): as above

For the molecule bevacizumab [reference compound], the “Patients with increased plasma bFGF” value in the data set with bFGF (after bevacizumab-only lead-in (day 1 vs day − 15), p = 0.008) is recorded as 8 of 11. Further, the “Average increase of plasma PIGF” value in the data set on PlGF (after bevacizumab treatment) is on record as 60%. Besides, in the data set on PlGF (after bevacizumab treatment, p = 0.005), the “Patients with increased plasma PIGF” value is listed as 10 of 11. The “Plasma VEGF-A” value with VEGF-A (after bevacizumab treatment) was “decreased expression of VEGF-A in two patients (#01; #07) and increases in eight patients”. Moreover, in the data set on HGF (after bevacizumab treatment), the “Plasma HGF concentrations” value is “increased in six patients”. In the data set with soluble VEGFR1 (sVEGFR1) (after bevacizumab administration, five patients with elevated baseline), the “Plasma sVEGFR1 concentrations” value was “decreased”.

With `O=C1NC(=O)[C@@H](c2cn3c4c(cccc24)CCC3)[C@@H]1c1c[nH]c2ccccc12` [tivantinib], the Steady-state clearance in data set [1] is recorded as 11.8 L/h. Further, the Tubulin polymerization result in the data set with tubulin is “inhibited tubulin polymerization, but not to the same extent as vincristine”. In data set [2], the “Dose-normalised exposure on day 1” value is on record as 5.82 ng/mL/mg. Further, in data set [3], the “α- and β-tubulin protein expression” value is “loss of both α- and β-tubulin protein expression”. Moreover, the “Patients with substantial reductions in tubulin expression in skin” value in the data set on beta-tubulin is 4/11 and 4 of 11. For the same molecule, in the data set with bFGF (day 15, following 14 days of tivantinib added to bevacizumab, p = 0.047), the “Plasma bFGF concentrations” value is listed as “returned to baseline in most patients”. Further, the “Plasma PIGF concentrations” value with PlGF (setting [5]) is “did not alter PIGF concentrations”. For the same molecule, the “Plasma VEGF-A concentrations” value with VEGF-A (setting [5]) is given as “did not alter VEGF-A concentrations”. For the same molecule, in the data set with HGF (addition of tivantinib, in the six patients with increase after bevacizumab), the “Plasma HGF concentrations” value is listed as “decreased in these same patients”. For the same molecule, the “Total MET expression in the cytoplasm (skin)” value at Met is recorded as “remained unchanged”. Moreover, the “Tubulin expression in patient PBMCs” value in the data set with β-tubulin is “No significant differences”. The “Patients with reduced p-MET expression in skin” value at p-Tyr1234/5-Met is 7/11 and 7 of 11. The “Plasma sVEGFR1 concentrations” value in the data set on soluble VEGFR1 (sVEGFR1) (following tivantinib administration) is “increased in four patients”. Besides, the t½ in [4] (Total (N = 11), all dose levels, day 1, plasma, mean (SD)) is on record as 5.1 (2.4) h. Also, the Cl/F in data set [4] (Total (N = 11), mean (SD)) stood at 24.9 L/h; in data set [4] (tivantinib 120/120 mg AM/PM (N = 1)), 9.43 L/h; in data set [4] (tivantinib 360/240 mg AM/PM (N = 1)) it was 25.8 L/h. Also, the AUC(0-t) in [4] (human, plasma, oral, AUC0–8, tivantinib 360/240 mg AM/PM (N = 1), day 1, plasma) was 5020 ng·h/mL. Besides, the Tmax in data set [4] (human, plasma, oral, Tmax, tivantinib 120/120 mg AM/PM (N = 1), day 1, plasma) is 2.5 h; in [4] (human, plasma, oral, Tmax, tivantinib 360/240 mg AM/PM (N = 1), day 1, plasma), 3 h; in data set [4] (human, plasma, po, Time of peak plasma concentration, day 1, all 11 patients) it was approximately 3 h. The half-life was 8.2 h in data set [4] (human, plasma, oral, tivantinib 120/120 mg AM/PM (N = 1), day 1, plasma) and 9.2 h in [4] (human, plasma, oral, tivantinib 360/240 mg AM/PM (N = 1), day 1, plasma). In [4] (tivantinib 120/120 mg AM/PM (N = 1), day 1, plasma), the “AUC0–8” value came out at 5570 ng·h/mL. In addition, in data set [4] (twice daily dosing), the “Time for accumulation to reach steady-state” value is reported as not above 24 h. The “Time-dependent inhibition of CYP3A4” value in the data set with CYP3A4 is listed as “exhibits time-dependent inhibition”.

On to `CC[C@]1(O)C[C@H]2CN(CCc3c([nH]c4ccccc34)[C@@](C(=O)OC)(c3cc4c(cc3OC)N(C=O)[C@H]3[C@@](O)(C(=O)OC)[C@H](OC(C)=O)[C@]5(CC)C=CCN6CC[C@]43[C@@H]65)C2)C1` [vincristine, reference compound], for which, in data set [3], the “α- and β-tubulin protein expression” value is “loss of both α- and β-tubulin protein expression”.
